Measurements as given in ChEMBL document CHEMBL1201862, “PubChem BioAssay data set” (2004).
Activity calls are given as the source filed them.

Key:
[1] = molecular target: T1, Corticotropin-releasing factor receptor 2/Corticotropin-releasing factor-binding protein (Homo sapiens, UniProt P24387+Q13324); assay: Dose Response confirmation of uHTS hits for small molecule antagonists of the CRF-binding protein and CRF-R2 receptor complex.; assay type: functional; details: read-out: IC50_Mean
T1 sequence (Q13324 whole entry): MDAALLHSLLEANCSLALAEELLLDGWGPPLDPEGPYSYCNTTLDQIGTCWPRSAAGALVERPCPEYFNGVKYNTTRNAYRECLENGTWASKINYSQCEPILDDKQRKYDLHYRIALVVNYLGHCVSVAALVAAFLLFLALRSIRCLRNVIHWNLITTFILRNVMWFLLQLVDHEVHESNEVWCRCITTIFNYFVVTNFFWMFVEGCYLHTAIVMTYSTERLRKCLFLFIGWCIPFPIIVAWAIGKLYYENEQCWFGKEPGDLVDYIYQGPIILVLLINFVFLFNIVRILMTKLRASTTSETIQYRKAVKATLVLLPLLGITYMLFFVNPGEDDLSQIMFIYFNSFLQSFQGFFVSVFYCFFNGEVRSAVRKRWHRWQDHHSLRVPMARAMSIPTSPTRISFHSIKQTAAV
T1 sequence (P24387 whole entry): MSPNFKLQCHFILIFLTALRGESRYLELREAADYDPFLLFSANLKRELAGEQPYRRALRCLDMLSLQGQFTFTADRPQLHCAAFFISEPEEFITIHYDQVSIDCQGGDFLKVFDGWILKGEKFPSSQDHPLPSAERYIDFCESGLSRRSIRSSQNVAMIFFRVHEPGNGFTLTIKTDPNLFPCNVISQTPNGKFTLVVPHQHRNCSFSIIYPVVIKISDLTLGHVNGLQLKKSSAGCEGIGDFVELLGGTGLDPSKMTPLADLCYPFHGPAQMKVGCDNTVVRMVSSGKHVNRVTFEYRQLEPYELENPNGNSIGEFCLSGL

[2] = molecular target: T1, Corticotropin-releasing factor receptor 2/Corticotropin-releasing factor-binding protein; assay: activators of CRF receptor 2 with binding protein – uHTS hits, confirmation (AID 602473); assay type: functional; details: read-out: EC50_Mean
[3] = CRF-BP/CRF-R2 complex antagonists, dose response, cell-based, uHTS hits, 384-well (AID 651639); assay type: functional, Homo sapiens; details: read-out: IC50_Mean
[4] = molecular target: T2, High affinity choline transporter 1 (Homo sapiens, UniProt Q9GZV3); assay: CHT inhibitors, dose response, cell-based, 5-point CRC, membrane potential dye (AID 504840); assay type: functional
T2 sequence (Q9GZV3 whole entry): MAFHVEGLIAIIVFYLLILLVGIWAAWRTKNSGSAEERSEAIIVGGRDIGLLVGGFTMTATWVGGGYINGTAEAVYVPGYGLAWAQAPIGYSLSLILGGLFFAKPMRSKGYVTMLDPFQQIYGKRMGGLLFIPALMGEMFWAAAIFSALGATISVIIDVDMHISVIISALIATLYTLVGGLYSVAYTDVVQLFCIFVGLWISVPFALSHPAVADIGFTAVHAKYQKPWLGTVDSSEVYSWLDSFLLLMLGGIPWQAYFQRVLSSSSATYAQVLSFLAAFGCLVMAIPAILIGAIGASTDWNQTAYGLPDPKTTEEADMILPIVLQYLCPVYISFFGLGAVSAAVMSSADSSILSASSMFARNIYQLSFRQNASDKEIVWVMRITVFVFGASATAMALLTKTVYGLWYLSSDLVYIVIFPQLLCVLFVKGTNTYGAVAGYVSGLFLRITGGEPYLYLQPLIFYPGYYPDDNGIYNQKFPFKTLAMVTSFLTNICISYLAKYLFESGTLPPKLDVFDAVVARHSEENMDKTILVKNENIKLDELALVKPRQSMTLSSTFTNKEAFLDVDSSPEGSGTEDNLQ

[5] = inhibitors of intracellular T. cruzi replication, confirmation, NIH3T3 host cells, beta-gal luminescence (AID 2044); assay type: functional, cell-based;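 also: intracellular parasites grown in NIH/3T3 mouse fibroblasts as host cells; luminescent beta-galactosidase reporter signal from transgenic T. cruzi replicating inside host cells; inhibitors lower the luminescence signal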
[6] = growth suppression of PTEN-null colon cells, dose response, cell-based, HCT116 PTEN knockout (AID 1047); assay type: functional;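 also: HCT116 colon tumor cells with PTEN knocked out; cells exposed to compound for 60 hours before readout; potency for loss of cell viability measured by luminescence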
[7] = cytotoxicity toward NIH3T3 fibroblasts, dose response, counter-screen, cell-based, ATP luminescence, mouse fibroblasts (AID 2010); assay type: functional;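 also: cells exposed to compound for about 90 hours before reading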
[8] = growth suppression of beta-catenin-knockout colon cells, dose response, cell-based, HCT116, human colon tumor (AID 1045); assay type: functional;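 also: HCT116 colon tumor cells with beta catenin knocked out; cells exposed to compound for 60 hours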
[9] = THP-1 cell cytotoxicity, dose response, cytotoxicity control for non-replicating M. tuberculosis project (AID 489025); assay type: functional
[10] = HepG2 cell cytotoxicity, dose response, cytotoxicity control for non-replicating M. tuberculosis project (AID 489018); assay type: functional; details: Mycobacterium tuberculosis
[11] = Vero E6 cell cytotoxicity, dose response, cytotoxicity control for non-replicating M. tuberculosis project, secondary assay (AID 492998); assay type: functional, VeroE6; details: Vero C1008
[12] = molecular target: T3, Heat shock factor protein 1 (Mus musculus, UniProt P38532); assay: HSF1 potentiators in luciferase reporter cells, confirmation, cell-based, NIH3T3, luminescence, dose retest (AID 435004); assay type: functional;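 also: stress induced by proteasome inhibitor MG132 added 30 min after compound; luciferase reporter driven by HSF1 response element in NIH3T3 cells; actives raise luminescence as potentiators of the MG132 stress response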
T3 sequence (P38532 whole entry): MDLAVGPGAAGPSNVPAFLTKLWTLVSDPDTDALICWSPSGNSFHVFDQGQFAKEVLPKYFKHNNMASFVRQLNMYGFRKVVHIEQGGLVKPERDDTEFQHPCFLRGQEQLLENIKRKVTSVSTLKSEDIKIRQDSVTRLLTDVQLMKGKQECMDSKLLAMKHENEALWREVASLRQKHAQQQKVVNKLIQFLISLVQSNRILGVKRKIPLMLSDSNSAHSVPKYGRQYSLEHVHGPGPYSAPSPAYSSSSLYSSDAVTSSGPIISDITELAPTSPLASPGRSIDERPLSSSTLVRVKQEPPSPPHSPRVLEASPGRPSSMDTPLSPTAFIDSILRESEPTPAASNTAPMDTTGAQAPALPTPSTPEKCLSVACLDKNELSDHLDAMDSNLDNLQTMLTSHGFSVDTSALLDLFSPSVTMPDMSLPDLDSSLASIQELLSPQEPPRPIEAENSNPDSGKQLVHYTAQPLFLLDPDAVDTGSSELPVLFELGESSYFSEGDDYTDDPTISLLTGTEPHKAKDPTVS

[13] = molecular target: T4, Microphthalmia-associated transcription factor (Homo sapiens, UniProt O75030); assay: TRPM1 promoter luciferase signal decrease, dose response, MITF inhibitor project, cell-based, SK-MEL-5, cherry-picked, set 3 (AID 493073); assay type: functional
T4 sequence (O75030 whole entry): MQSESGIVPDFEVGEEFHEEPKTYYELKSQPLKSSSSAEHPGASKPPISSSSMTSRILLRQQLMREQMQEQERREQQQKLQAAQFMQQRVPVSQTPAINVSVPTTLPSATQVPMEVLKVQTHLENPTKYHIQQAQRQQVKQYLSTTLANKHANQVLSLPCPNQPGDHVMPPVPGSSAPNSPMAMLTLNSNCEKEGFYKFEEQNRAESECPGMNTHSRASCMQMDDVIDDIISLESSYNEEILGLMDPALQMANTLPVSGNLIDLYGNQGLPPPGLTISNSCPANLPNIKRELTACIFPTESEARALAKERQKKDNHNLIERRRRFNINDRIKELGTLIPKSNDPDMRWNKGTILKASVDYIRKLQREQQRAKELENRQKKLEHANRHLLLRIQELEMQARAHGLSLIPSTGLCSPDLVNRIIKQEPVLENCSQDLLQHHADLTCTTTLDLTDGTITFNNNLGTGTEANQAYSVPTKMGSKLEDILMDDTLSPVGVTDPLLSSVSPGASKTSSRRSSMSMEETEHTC

[14] = cells; assay type: functional
[15] = molecular target: T5, Short transient receptor potential channel 4 (Mus musculus, UniProt Q9QUQ5); assay: mouse TRPC4 channel activators, dose response, cell-based, HEK293 TRPC4/mu-opioid, Fluo-4 calcium (AID 434937); assay type: functional
T5 sequence (Q9QUQ5 whole entry): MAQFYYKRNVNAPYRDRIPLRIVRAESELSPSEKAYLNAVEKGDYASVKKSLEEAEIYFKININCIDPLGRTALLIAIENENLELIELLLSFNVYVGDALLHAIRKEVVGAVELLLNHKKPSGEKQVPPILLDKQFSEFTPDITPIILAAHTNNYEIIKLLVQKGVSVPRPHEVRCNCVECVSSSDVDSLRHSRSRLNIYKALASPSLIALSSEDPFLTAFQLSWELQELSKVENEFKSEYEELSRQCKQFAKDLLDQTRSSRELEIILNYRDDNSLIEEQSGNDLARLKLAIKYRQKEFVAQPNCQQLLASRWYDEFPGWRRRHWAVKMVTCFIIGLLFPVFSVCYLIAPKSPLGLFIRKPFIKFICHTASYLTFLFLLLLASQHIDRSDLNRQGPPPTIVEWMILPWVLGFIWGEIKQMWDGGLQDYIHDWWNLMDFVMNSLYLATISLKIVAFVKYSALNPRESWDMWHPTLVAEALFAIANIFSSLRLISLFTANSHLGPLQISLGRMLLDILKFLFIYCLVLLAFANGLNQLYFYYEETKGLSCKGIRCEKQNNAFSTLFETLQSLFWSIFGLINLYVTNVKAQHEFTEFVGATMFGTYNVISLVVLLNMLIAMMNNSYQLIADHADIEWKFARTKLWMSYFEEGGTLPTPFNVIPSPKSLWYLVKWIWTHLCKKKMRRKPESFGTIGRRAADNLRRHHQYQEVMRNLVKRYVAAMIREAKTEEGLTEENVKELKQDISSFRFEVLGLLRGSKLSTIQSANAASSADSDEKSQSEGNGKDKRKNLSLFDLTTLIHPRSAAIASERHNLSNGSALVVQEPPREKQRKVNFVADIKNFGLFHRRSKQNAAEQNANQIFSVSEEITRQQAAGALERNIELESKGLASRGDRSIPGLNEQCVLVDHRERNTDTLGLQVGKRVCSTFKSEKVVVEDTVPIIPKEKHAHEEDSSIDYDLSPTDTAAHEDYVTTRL

[16] = molecular target: Ras and Rab interactor 1/Tyrosine-protein kinase ABL1 (Homo sapiens, UniProt P00519+Q13671); assay type: functional;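 also: biochemical TR-FRET dose-response test measuring inhibition of binding between Rin1 and Abl proteins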
Ras and Rab interactor 1/Tyrosine-protein kinase ABL1, sequence (P00519 whole entry): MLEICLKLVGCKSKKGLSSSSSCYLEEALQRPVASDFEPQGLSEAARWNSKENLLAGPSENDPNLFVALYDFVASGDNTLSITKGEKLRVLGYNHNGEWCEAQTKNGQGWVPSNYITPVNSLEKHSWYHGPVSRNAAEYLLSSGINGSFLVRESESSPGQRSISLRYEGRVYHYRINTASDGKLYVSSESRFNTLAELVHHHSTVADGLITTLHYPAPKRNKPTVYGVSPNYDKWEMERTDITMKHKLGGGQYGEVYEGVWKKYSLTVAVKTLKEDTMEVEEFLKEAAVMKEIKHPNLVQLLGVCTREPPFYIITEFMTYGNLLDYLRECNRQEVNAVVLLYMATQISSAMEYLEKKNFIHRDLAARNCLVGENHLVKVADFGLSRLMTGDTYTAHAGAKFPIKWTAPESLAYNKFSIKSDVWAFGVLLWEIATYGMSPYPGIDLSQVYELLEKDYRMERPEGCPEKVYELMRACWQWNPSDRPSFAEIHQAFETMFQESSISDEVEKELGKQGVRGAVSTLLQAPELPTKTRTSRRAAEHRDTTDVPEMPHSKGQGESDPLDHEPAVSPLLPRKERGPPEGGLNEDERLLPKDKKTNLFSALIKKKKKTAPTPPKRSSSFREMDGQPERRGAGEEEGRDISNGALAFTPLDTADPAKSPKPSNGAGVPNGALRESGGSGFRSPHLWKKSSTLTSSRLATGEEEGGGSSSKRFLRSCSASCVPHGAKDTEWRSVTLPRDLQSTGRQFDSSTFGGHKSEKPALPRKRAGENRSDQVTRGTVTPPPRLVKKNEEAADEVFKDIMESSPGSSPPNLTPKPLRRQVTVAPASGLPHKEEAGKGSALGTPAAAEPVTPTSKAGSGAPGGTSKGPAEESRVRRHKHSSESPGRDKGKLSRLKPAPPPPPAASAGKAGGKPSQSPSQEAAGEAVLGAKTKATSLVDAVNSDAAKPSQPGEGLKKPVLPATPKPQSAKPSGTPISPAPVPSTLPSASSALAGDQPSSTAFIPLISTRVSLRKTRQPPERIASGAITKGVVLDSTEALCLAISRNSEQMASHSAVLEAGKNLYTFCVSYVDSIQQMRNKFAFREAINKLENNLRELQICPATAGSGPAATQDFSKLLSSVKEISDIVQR
Ras and Rab interactor 1/Tyrosine-protein kinase ABL1, sequence (Q13671 whole entry): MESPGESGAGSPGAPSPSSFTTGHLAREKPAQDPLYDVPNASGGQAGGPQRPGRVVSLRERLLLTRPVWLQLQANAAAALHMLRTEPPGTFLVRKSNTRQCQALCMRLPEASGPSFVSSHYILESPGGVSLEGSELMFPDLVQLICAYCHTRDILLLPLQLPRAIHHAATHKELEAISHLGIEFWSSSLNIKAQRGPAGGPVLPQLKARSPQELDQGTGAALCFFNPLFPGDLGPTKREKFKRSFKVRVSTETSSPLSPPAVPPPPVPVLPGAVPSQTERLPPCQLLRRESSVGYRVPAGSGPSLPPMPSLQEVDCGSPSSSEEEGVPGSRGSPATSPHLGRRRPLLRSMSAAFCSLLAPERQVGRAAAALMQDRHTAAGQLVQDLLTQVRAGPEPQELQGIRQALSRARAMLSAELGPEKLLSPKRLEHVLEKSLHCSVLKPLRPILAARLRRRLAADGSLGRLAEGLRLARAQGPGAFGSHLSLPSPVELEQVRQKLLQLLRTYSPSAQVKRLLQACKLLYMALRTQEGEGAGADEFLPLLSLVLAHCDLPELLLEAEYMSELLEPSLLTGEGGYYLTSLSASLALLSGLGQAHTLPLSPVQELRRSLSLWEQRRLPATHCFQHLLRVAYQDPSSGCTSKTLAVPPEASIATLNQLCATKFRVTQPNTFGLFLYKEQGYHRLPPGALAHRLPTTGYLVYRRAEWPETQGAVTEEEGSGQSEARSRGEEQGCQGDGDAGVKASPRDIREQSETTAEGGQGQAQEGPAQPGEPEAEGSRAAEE

[17] = test system: Streptococcus sp. 'group A'; assay: growth inhibition of control SK(-) GAS strain, dose response, counter-screen for streptokinase expression inhibitor project, luminescence, kanamycin, BacTiterGlo, confirmation (AID 1900); assay type: functional, organism-based
[18] = molecular target: T6, Streptokinase A (Streptococcus pyogenes serotype M1, UniProt P10520); assay: S. pyogenes streptokinase expression inhibitors, potency, dose response, plasminogen activation absorbance, OD405 (AID 1914); assay type: functional, Streptococcus pyogenes M1 GAS;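 also: secreted streptokinase activity via plasminogen activation per viability signal from cell pellet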
T6 sequence (P10520 whole entry): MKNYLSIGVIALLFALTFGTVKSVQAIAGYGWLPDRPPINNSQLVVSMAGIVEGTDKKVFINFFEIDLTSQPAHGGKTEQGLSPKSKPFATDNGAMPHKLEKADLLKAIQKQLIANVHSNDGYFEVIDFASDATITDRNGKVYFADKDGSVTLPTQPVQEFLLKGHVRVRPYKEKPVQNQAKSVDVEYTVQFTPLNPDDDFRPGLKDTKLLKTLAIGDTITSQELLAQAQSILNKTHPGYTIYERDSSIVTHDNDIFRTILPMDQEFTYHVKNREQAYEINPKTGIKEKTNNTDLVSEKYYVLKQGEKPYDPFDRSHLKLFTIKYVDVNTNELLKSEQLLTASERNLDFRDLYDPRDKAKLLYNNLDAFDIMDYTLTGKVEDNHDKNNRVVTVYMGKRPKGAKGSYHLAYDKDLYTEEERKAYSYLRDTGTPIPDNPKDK

[19] = test system: Streptococcus; assay: Group A Streptococcus viability loss, dose response, counter-screen for streptokinase expression inhibitor project, luminescence, BacTiterGlo (AID 1915); assay type: functional, organism-based;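 also: potency for reduction of bacterial viability or growth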
[20] = molecular target: FAD-linked sulfhydryl oxidase ALR (Homo sapiens, UniProt P55789); assay: inhibitors of human ALR sulfhydryl oxidase, dose response, biochemical, H2O2 detection, luminescence, cherry-pick (AID 493248)
FAD-linked sulfhydryl oxidase ALR, sequence (P55789 whole entry): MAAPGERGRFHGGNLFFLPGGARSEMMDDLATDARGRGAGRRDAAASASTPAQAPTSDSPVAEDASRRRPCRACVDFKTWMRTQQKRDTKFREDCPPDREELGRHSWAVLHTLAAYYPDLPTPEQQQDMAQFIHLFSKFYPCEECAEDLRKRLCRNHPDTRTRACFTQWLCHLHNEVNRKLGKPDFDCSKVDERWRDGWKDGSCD

For COc1ccc(Oc2ccc(C(F)(F)F)cc2NC(=O)c2ccc(OC)cc2)cc1, the IC50 [1] was < 0.368 µM (active), the EC50 [2] was > 53 µM (inactive) and the IC50 [3] was 7.95 µM (active).

For COc1cccc(/C=C2\SC(=S)N(NC(=O)c3ccncc3)C2=O)c1, the IC50 [4] was 12.6 µM (active).

For O=[N+]([O-])c1ccc(-n2nnnc2-c2ccccc2)c([N+](=O)[O-])c1, the EC50 [5] was 1.75 µM (active), the EC50 [6] was 4.92 µM (active) and the EC50 [7] was > 60 µM (not active). The EC50 [8] was 5.3 µM (active), the CC50 [9] was 19.6 µM (active) and the CC50 [10] was 19.2 µM (active). The CC50 [11] was 8.41 µM (active), the EC50 [12] was 9.09 µM (active) and the AC50 [13] was 7.37 µM (active). The IC50 [14] was 5.22 µM (active).

For COc1ccc(-n2c3c(cc(C(=O)NNc4ccccc4)c2=O)C(=O)CC(C)(C)C3)cc1, the EC50 [15] was 1.06 µM (active).

In the case of C=CCNc1ncnc2c1ncn2[C@H]1CN(Cc2ccc(-c3ccccc3)cc2)C[C@@H](CO)O1, the IC50 [16] is reported as 24.2 µM (inactive).

In the case of Oc1cc2ccccc2cc1-c1nnc(S)o1, the EC50 [17] is reported as 10.3 µM (active), the EC50 [18] is reported as 23.5 µM (active) and the EC50 [19] is reported as > 150 µM (not active). The AC50 [20] was 0.301 µM (active), the IC50 [1] was 10.5 µM (active) and the EC50 [2] was > 53 µM (inactive). For the same molecule, the IC50 [3] was 13.4 µM (active).
